For 14 compounds, CC50, EC50 and IC50 results are on record in US11021444B2, “Antiviral compounds” (priority 2013, dated 2021).

As usually defined, the CC50 is the concentration that lowers cell viability or growth by half. Lower therefore signals greater toxicity to the cells. In general, pIC50 refers to the negative decadic logarithm of the IC50, by convention in mol/L.

Each structure is given as a SMILES string. pEC50, pIC50: −log10 of the molar value. Like-named read-outs stand apart in the source and are kept apart here. Where only a bound is given, the exact number is not on record here.

Series [1] can be described thus: Cytotoxicity Determination (CCK-8, without addition of virus). Type of series: cell-based. The conditions noted are these: human, 50% cytotoxicity concentration (CC50). An outline of the steps: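 HEp-2 cells were seeded at 1,500 cells/well one day before compound addition. Compounds were tested without virus in duplicate over 7 points from 100 μM in 1/2 steps, with 1% final DMSO, 5 days at 37 °C, 5% CO2. Viability was read by CCK-8 after 3-4 hours.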

For series [2], the system named is Respiratory Syncytial Virus (RSV) long strain. Kind of series: microbe, parasite or virus in culture. Type of series: cell-based. Particulars: human respiratory syncytial virus, Tables A and B list compounds by EC50 band. An outline of the steps:
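HEp-2 cells infected with 100 TCID50 virus per well, compounds in duplicate, 9-point 1/3 dilutions from 100 μM or 1 μM, 1% DMSO. After 5 days at 37 °C, cell viability (CPE protection) read by CCK-8 absorbance at 450 nm, 630 nm background.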

For the next series, the target named is recombinant RSV complex (Human respiratory syncytial virus A, UniProt P28887). Kind of series: RSV Polymerase Inhibition Assay. The format is biochemical. Put shortly: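 10 nM recombinant RSV polymerase complex in Tris-HCl pH 7.5, 6 mM MgCl2 with RNA oligonucleotide template and radionucleotides, incubated 2 h at 30 °C with increasing inhibitor concentrations. Reaction stopped with EDTA; radiolabeled RNA product counted by scintillation.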
Chain of recombinant RSV complex (P28887 whole entry): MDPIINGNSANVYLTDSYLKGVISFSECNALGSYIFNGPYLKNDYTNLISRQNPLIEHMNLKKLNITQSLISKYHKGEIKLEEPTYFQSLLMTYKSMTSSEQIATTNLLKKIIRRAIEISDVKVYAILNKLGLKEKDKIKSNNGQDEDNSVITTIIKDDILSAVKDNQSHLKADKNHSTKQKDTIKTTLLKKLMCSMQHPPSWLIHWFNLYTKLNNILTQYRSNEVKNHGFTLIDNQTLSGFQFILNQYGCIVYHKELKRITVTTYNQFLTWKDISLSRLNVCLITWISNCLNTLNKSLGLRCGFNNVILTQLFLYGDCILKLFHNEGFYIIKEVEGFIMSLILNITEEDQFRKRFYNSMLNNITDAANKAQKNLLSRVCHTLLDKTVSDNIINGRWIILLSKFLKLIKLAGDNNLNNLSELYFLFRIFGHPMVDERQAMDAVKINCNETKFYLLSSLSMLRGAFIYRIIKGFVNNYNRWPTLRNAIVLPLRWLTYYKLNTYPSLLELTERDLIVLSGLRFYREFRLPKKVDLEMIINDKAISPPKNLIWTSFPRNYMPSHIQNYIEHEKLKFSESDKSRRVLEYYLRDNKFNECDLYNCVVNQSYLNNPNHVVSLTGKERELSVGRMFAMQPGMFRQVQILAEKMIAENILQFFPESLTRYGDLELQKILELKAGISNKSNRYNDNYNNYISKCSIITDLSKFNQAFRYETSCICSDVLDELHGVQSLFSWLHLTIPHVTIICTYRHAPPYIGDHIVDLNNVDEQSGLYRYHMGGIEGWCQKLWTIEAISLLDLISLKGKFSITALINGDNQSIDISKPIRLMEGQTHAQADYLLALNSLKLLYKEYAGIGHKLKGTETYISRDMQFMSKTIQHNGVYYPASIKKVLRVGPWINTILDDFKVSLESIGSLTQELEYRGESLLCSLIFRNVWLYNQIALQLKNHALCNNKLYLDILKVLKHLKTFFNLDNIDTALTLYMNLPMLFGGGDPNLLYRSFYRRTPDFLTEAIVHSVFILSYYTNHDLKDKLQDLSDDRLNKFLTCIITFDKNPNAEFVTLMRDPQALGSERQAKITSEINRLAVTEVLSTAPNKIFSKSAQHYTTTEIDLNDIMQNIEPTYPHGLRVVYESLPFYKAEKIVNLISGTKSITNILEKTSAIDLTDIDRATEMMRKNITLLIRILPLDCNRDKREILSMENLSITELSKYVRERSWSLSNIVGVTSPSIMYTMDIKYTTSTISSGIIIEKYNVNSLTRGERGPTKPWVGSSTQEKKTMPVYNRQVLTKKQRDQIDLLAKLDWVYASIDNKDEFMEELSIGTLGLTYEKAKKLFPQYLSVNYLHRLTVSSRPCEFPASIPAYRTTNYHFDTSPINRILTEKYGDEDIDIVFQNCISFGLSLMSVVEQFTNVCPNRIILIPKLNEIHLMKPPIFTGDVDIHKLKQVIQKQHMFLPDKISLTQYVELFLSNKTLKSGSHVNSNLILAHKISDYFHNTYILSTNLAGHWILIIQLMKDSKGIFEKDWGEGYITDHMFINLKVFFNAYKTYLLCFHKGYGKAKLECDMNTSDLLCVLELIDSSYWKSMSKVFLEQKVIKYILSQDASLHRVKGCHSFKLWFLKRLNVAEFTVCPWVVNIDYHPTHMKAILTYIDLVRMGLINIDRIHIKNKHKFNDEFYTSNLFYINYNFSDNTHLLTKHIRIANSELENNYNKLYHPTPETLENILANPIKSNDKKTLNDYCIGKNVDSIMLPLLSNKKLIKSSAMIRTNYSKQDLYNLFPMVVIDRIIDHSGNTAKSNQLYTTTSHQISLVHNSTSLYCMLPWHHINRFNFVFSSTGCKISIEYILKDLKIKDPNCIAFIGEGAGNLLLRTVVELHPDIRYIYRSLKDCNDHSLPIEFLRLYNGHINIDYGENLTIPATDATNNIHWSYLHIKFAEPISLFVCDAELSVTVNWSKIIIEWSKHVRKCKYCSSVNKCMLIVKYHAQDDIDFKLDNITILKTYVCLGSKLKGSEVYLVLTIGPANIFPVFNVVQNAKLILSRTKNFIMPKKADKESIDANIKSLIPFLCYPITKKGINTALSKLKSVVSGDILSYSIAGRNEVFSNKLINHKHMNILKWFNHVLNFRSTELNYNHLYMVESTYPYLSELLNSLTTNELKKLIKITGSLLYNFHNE
Chain of recombinant RSV complex (P03421 whole entry, further chain): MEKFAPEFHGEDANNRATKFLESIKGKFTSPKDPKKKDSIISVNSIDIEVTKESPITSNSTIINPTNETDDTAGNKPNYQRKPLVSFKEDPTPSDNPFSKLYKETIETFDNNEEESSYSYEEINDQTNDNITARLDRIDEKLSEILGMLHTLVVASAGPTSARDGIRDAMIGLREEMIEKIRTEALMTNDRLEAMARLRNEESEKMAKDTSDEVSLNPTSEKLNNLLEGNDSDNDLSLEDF

For a further series, the system named is RSV replicon. Kind of series: microbe, parasite or virus in culture. Type of series: cell-based. The conditions noted are these: human respiratory syncytial virus, read-out: EC50, the concentration of the drug required for reducing RSV replicon RNA by 50%. Background: A replicon is a self-replicating genome or part of one, used to study replication in cells.

[3] abbreviates: HEp-2, 120 h, read-out: 50% effective concentration (EC50), HEp-2 cells infected with RSV long strain, 5 days, CCK-8 readout.

Experimental for RSV replicon: The Renilla Luciferase Assay System (Promega, Cat. #E2820) was used to measure anti-RSV replicon activity. […] Luminescence was recorded using a Perkin Elmer multilabel counter Victor3V. EC50, the concentration of the drug required for reducing RSV replicon RNA by 50% in relation to the untreated cell control value, was calculated from the plot of percentage reductions of the optical density (OD) value against the drug concentrations using the Microsoft Excel forecast function.

Regarding `COc1cc(C(=O)NCC(O)(c2cc3c(c(-c4ccc(F)c(Cl)c4)n2)OCCC3)C2CC2)ccc1OCCO` (centres unmarked) [Compound 309], the CC50 at 5 days in series [1] fell in the range of 10000 to 100000 nM. Further, the pEC50 (in series [2] (setting [3]); in the series with RSV replicon) was over 6.00 each time. Besides, at recombinant RSV complex, the pIC50 is over 6.00.
`COc1cc(C(=O)NCC(O)(c2ccc(OC)c(-c3ccc(F)c(Cl)c3)n2)C(F)F)ccc1OCCO` (centres unmarked) [Compound 436]: in series [1], the CC50 at 5 days was in the range of 10000 to 100000 nM. The pEC50 (in series [2] (setting [3]); in the series on RSV replicon) was over 6.00 each time. In addition, the pIC50 at recombinant RSV complex was over 6.00.
As for `COc1cc(C(=O)NCC(=O)c2cc3c(c(-c4ccc(F)c(Cl)c4)n2)OCC=C3)ccc1OCCF` [Compound 302], the CC50 at 5 days in series [1] was over 100000 nM. Also, the pEC50 in series [2] (setting [3]) was 4.30 to 6.00; in the series on RSV replicon, over 6.00. Moreover, the pIC50 on recombinant RSV complex was over 6.00.
In series [1], `COc1cc(C(=O)NCC(F)(c2ccc(OC)c(-c3ccc(F)c(Cl)c3)n2)C2CC2)ccc1OCCO` (centres unmarked) [Compound 366] gave a CC50 at 5 days of 10000 to 100000 nM. The pEC50 (in series [2] (setting [3]); with RSV replicon) was over 6.00 throughout. The negative logarithm of the IC50 (pIC50) at recombinant RSV complex is over 6.00.
`COc1cc(C(=O)NCC(O)(c2ccc(OC)c(-c3ccc(F)c(Cl)c3)n2)C2CC2)ccc1OC(C)(F)F` (centres unmarked) [Compound 437] gave a CC50 at 5 days in series [1] of 10000 to 100000 nM. The values for the pEC50 (in series [2] (setting [3]); in the series with RSV replicon) were 4.30 to 6.00 and over 6.00, respectively. For the same compound, the negative logarithm of the IC50 (pIC50) on recombinant RSV complex was over 6.00.
`COc1ccc(C(O)(CNC(=O)c2ccc(OCC(N)=O)c(Cl)c2)C(F)(F)F)nc1-c1ccc(F)c(Cl)c1` (centres unmarked) [Compound 237] showed a CC50 at 5 days in series [1] of 10000 to 100000 nM. The pEC50 (in series [2] (setting [3]); with RSV replicon) was over 6.00 each time. The pIC50 at recombinant RSV complex is over 6.00.
In the case of `COc1cc(C(=O)NCC(O)(c2ccc(OC)c(-c3ccc(F)c(Cl)c3)n2)C(C)C)ccc1OCCF` (centres unmarked) [Compound 125], the half-maximal cytotoxic concentration (CC50) at 5 days in series [1] was in the range of 10000 to 100000 nM. Further, the pEC50 (in series [2] (setting [3]); in the series on RSV replicon) was over 6.00 throughout. Also, the pIC50 at recombinant RSV complex was over 6.00.
`COc1cc(C(=O)NCC(O)(c2cc(C(C)(C)NC(C)C)cc(-c3ccc(F)c(Cl)c3)n2)C(F)(F)F)ccc1OC1CC1` (centres unmarked) [Compound 392]: in series [1], the CC50 at 5 days is 10000 to 100000 nM. Moreover, the pEC50 (in series [2] (setting [3]); in the series with RSV replicon) was over 6.00 each time. Besides, the pIC50 at recombinant RSV complex was over 6.00.
For the compound `COc1cc(C(=O)NCC(O)(c2cc3c(c(-c4ccc(F)c(F)c4)n2)OCC3(C)N)C(F)(F)F)ccc1OCCO` (centres unmarked) [Compound 663], the cytotoxic concentration (CC50) at 5 days in series [1] is 10000 to 100000 nM. For the same compound, the pEC50 (in series [2] (setting [3]); in the series with RSV replicon) was over 6.00 throughout. Further, the pIC50 on recombinant RSV complex was over 6.00.
On to `COc1cc(C(=O)NCC(C)(O)c2ccc(OC)c(-c3ccc(F)c(Cl)c3)n2)ccc1OCCF` (centres unmarked) [Compound 119], for which the 50% cytotoxic concentration (CC50) at 5 days in series [1] lay in the range of 10000 to 100000 nM. Moreover, the pEC50 (in series [2] (setting [3]); in the series on RSV replicon) was over 6.00 each time. Besides, at recombinant RSV complex, the pIC50 was over 6.00.
In the case of `COc1cc(C(=O)NCC(O)(c2cc3c(c(-c4ccc(C(F)(F)F)cc4)n2)OCC3(C)N)C(F)(F)F)ccc1OCCO` (centres unmarked) [Compound 645], the CC50 at 5 days in series [1] fell in the range of 10000 to 100000 nM. Moreover, the pEC50 (in series [2] (setting [3]); with RSV replicon) was over 6.00 throughout. The pIC50 on recombinant RSV complex is over 6.00.
Take `COc1cc(C(=O)NCC(O)(c2cc3c(c(-c4ccc(F)c(Cl)c4)n2)OCC3(C)N)C(F)(F)F)ccc1OCCO` (centres unmarked) [Compound 638]: in series [1], the CC50 at 5 days fell in the range of 10000 to 100000 nM. The pEC50 (in series [2] (setting [3]); in the series on RSV replicon) was over 6.00 each time. The pIC50 on recombinant RSV complex was over 6.00.
Consider `COc1cc(C(=O)NCC(O)(c2cc3c(c(-c4ccc(F)cc4)n2)OCC3(N)C(C)C)C(F)(F)F)ccc1OC1CC1` (centres unmarked) [Compound 560], for which the CC50 at 5 days in series [1] is 10000 to 100000 nM. The pEC50 is over 6.00 in series [2] (120 h, read-out: 50% effective concentration (EC50), HEp-2 cells infected with RSV long strain, 5 days, CCK-8 readout) and over 6.00 in the series with RSV replicon. Moreover, at recombinant RSV complex, the pIC50 is over 6.00.
In series [1], `COc1cc(C(=O)NCC(O)(c2cc(C(C)(C)N)cc(-c3ccc(F)c(Cl)c3)n2)C(F)(F)F)ccc1O[C@H]1CCNC1=O` (some centres unmarked) [Compound 283] gave a CC50 at 5 days of 10000 to 100000 nM. Also, the pEC50 (in series [2] (setting [3]); in the series with RSV replicon) was over 6.00 in each case. Moreover, on recombinant RSV complex, the pIC50 is over 6.00.
